# Target: T1, human TLR7 (Homo sapiens, UniProt Q9NYK1)
# T1 construct: host or cells: HEK293 (HEK-Blue hTLR7)
# T1 sequence (Q9NYK1 27-1049): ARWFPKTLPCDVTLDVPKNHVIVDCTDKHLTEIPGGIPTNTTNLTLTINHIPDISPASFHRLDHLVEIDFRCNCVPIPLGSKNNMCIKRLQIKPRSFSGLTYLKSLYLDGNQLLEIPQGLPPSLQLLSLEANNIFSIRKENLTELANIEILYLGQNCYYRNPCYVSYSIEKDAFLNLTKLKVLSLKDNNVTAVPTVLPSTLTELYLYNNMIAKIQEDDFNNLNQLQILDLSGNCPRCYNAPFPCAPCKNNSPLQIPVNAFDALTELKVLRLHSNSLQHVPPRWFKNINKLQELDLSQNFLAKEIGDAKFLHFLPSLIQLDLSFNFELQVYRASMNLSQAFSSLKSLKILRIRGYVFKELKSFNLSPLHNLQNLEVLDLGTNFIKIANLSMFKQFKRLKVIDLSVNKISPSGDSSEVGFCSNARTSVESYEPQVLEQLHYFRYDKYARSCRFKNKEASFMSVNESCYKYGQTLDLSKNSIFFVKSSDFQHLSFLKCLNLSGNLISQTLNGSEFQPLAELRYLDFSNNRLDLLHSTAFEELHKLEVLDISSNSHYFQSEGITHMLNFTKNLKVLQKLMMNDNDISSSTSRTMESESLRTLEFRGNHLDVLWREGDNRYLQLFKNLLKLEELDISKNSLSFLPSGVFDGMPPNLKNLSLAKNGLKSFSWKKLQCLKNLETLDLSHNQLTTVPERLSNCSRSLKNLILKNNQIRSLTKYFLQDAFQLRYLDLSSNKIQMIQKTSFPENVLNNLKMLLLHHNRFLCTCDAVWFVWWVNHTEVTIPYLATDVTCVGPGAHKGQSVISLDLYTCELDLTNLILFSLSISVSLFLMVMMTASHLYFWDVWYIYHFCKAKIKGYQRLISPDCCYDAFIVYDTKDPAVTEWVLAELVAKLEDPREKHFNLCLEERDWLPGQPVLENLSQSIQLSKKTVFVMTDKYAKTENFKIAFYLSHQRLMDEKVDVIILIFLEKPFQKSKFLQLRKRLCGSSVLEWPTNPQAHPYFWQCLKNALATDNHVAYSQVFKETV
# Assay: HEK293-Blue hTLR7 Reporter Assay (QUANTI-BLUE, SEAP readout)
# Format: cell-based
# Details: HEK-Blue-hTLR7 cells, 24 hrs treatment, Table 1, B1-B232
# Procedure, shortened: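 Compound titrations were applied for 24 h at 37° C to reporter HEK293 cells (4×10^4 per well) in which human TLR7 activation drives secreted alkaline phosphatase. Supernatants reacted with Quanti-blue 10-30 min, absorbance read at 620-655 nm, and EC50 derived by sigmoidal curve fitting.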
row,SMILES,EC50 [nM]
1,"CCCCOc1nc(N)c2ncc(Cc3cnc(N4CCN(CCc5ccccc5)CC4)c(C)c3)n2n1 [Compound B116, 2-butoxy-7-((5-methyl-6-(4-phenethylpiperazin-1-yl)pyridin-3-yl)methyl)imidazo[2,1-f][1,2,4]triazin-4-amine]",1190
2,"CCCCOc1nc(N)c2ncc(Cc3cnc(N4CCN(C)CC4)c(Cl)c3)n2n1 [Compound B1, 2-butoxy-7-((5-chloro-6-(4-methylpiperazin-1-yl)pyridin-3-yl)methyl)imidazo[2,1-f][1,2,4]triazin-4-amine]",501
3,"C=CC(=O)N1CCN(c2ncc(Cc3cnc4c(N)nc(OCCCC)nn34)cc2Cl)CC1 [Compound B4, 1-(4-(5-((4-amino-2-butoxyimidazo[2,1-f][1,2,4]triazin-7-yl)methyl)-3-chloropyridin-2-yl)piperazin-1-yl)prop-2-en-1-one]",> 10000
4,"CCCCOc1nc(N)c2ncc(Cc3cnc(N4CCNCC4)c(CC)c3)n2n1 [Compound B183, 2-butoxy-7-((5-ethyl-6-(piperazin-1-yl)pyridin-3-yl)methyl)imidazo[2,1-f][1,2,4]triazin-4-amine]",93
5,"Cc1cc(Cc2cnc3c(N)nc(OCCc4ccccc4)nn23)cnc1N1CCNCC1 [Compound B30, 7-((5-methyl-6-(piperazin-1-yl)pyridin-3-yl)methyl)-2-phenethoxyimidazo[2,1-f][1,2,4]triazin-4-amine]",> 10000
6,"CCCCOc1nc(N)c2ncc(Cc3cnc(N4CCN(C(=O)C5CCNCC5)CC4)c(C)c3)n2n1 [Compound B56, (4-(5-((4-amino-2-butoxyimidazo[2,1-f][1,2,4]triazin-7-yl)methyl)-3-methylpyridin-2-yl)piperazin-1-yl)(piperidin-4-yl)methanone]",422
7,"CCCCOc1nc(N)c2ncc(Cc3ccc(N4CCNCC4)c(OC(C)C)c3)n2n1 [Compound B46, 2-butoxy-7-(3-isopropoxy-4-(piperazin-1-yl)benzyl)imidazo[2,1-f][1,2,4]triazin-4-amine]",960
8,"CCCCOc1nc(N)c2ncc(Cc3cnc(N4CCN(C(=O)CCN(C)C)CC4)c(C)c3)n2n1 [Compound B37, 1-(4-(5-((4-amino-2-butoxyimidazo[2,1-f][1,2,4]triazin-7-yl)methyl)-3-methylpyridin-2-yl)piperazin-1-yl)-3-(dimethylamino)propan-1-one]",148
9,"Cc1cc(Cc2cnc3c(N)nc(O)nn23)cnc1N1CCNCC1 [Compound B29, 4-amino-7-((5-methyl-6-(piperazin-1-yl)pyridin-3-yl)methyl)imidazo[2,1-f][1,2,4]triazin-2-ol]",> 10000
10,"CCCCOc1nc(N)c2ncc(Cc3cnc(N4CCNCC4)c(F)c3)n2n1 [Compound B9, 2-butoxy-7-((5-fluoro-6-(piperazin-1-yl)pyridin-3-yl)methyl)imidazo[2,1-f][1,2,4]triazin-4-amine]",345
11,"CCCCOc1nc(N)c2ncc(Cc3cnc(N4CC5CCCCC5C4)c(C)c3)n2n1 (stereo not shown) [Compound B38, 2-butoxy-7-((5-methyl-6-(octahydro-2H-isoindol-2-yl)pyridin-3-yl)methyl)imidazo[2,1-f][1,2,4]triazin-4-amine]",> 10000
12,"CCCCOc1nc(N)c2ncc(Cc3ccc(N4CCNCC4)c(OCC)c3)n2n1 [Compound B26, 2-butoxy-7-(3-ethoxy-4-(piperazin-1-yl)benzyl)imidazo[2,1-f][1,2,4]triazin-4-amine]",295
13,"CCCCCOc1nc(N)c2ncc(Cc3cnc(N4CCNCC4)c(C)c3)n2n1 [Compound B23, 7-((5-methyl-6-(piperazin-1-yl)pyridin-3-yl)methyl)-2-(pentyloxy)imidazo[2,1-f][1,2,4]triazin-4-amine]",487
14,"CCCCOc1nc(N)c2ncc(Cc3cnc(N4CCNCC4)cc3Cl)n2n1 [Compound B7, 2-butoxy-7-((4-chloro-6-(piperazin-1-yl)pyridin-3-yl)methyl)imidazo[2,1-f][1,2,4]triazin-4-amine]",2380

# Other lines, results leading:
row,EC50 [nM],SMILES
1,6.5,"CCC[C@H](C)Nc1nc(N)c2ncc(Cc3cnc(N4CCNCC4)c(C)c3)n2n1 (single isomer, unassigned) [Compound B148]"
2,497,"Cc1cc(Cc2cnc3c(N)nc(OC4CCCCC4)nn23)cnc1N1CCNCC1 [Compound B167, 2-(cyclohexyloxy)-7-((5-methyl-6-(piperazin-1-yl)pyridin-3-yl)methyl)imidazo[2,1-f][1,2,4]triazin-4-amine]"
3,62,"CCC[C@@H](C)Oc1nc(N)c2ncc(Cc3cnc(N4CCNCC4)c(C)c3)n2n1 [Compound B117, (R)-7-((5-methyl-6-(piperazin-1-yl)pyridin-3-yl)methyl)-2-(pentan-2-yloxy)imidazo[2,1-f][1,2,4]triazin-4-amine]"
4,4.1,"CCCC(CC)Oc1nc(N)c2ncc(Cc3cnc(N4CCC(CN(C)C)CC4)c(C)c3)n2n1 (stereo not shown) [Compound B164, 7-((6-(4-((dimethylamino)methyl)piperidin-1-yl)-5-methylpyridin-3-yl)methyl)-2-(hexan-3-yloxy)imidazo[2,1-f][1,2,4]triazin-4-amine]"
5,3.6,"CCCC(CCC)Nc1nc(N)c2ncc(Cc3cnc(N4CCC(CNC)CC4)c(C)c3)n2n1 [Compound B220, N2-(heptan-4-yl)-7-((5-methyl-6-(4-((methylamino)methyl)piperidin-1-yl)pyridin-3-yl)methyl)imidazo[2,1-f][1,2,4]triazine-2,4-diamine]"
6,6,"CCCC(C)Oc1nc(N)c2ncc(Cc3cnc(N4CCC(CN(C)C)CC4)c(C)c3)n2n1 (stereo not shown) [Compound B134, 7-((6-(4-((dimethylamino)methyl)piperidin-1-yl)-5-methylpyridin-3-yl)methyl)-2-(pentan-2-yloxy)imidazo[2,1-f][1,2,4]triazin-4-amine]"
7,61,"CCCCNc1nc(N)c2ncc(Cc3cnc(N4CCC(N)CC4)c(C)c3)n2n1 [Compound B88, 7-((6-(4-aminopiperidin-1-yl)-5-methylpyridin-3-yl)methyl)-N2-butylimidazo[2,1-f][1,2,4]triazine-2,4-diamine]"
8,19,"CCC(CC)Oc1nc(N)c2ncc(Cc3cnc(N4CCC(CN(C)C)CC4)c(C)c3)n2n1 [Compound B189, 7-((6-(4-((dimethylamino)methyl)piperidin-1-yl)-5-methylpyridin-3-yl)methyl)-2-(pentan-3-yloxy)imidazo[2,1-f][1,2,4]triazin-4-amine]"
9,46,"CCC[C@@H](CCO)Nc1nc(N)c2ncc(Cc3cnc(N4CCNCC4)c(C)c3)n2n1 [Compound B226, (S)-3-((4-amino-7-((5-methyl-6-(piperazin-1-yl)pyridin-3-yl)methyl)imidazo[2,1-f][1,2,4]triazin-2-yl)amino)hexan-1-ol]"
10,9.2,"CCC(CC)Nc1nc(N)c2ncc(Cc3cnc(N4CCC(N(C)C)CC4)c(C)c3)n2n1 [Compound B209, 7-((6-(4-(dimethylamino)piperidin-1-yl)-5-methylpyridin-3-yl)methyl)-N2-(pentan-3-yl)imidazo[2,1-f][1,2,4]triazine-2,4-diamine]"
11,25,"CCCC(Nc1nc(N)c2ncc(Cc3cnc(N4CCNCC4)c(C)c3)n2n1)C(F)(F)F (stereo not shown) [Compound B227, 7-((5-methyl-6-(piperazin-1-yl)pyridin-3-yl)methyl)-N2-(1,1,1-trifluoropentan-2-yl)imidazo[2,1-f][1,2,4]triazine-2,4-diamine]"

# Source: patent US12612407B2, “Imidazo[2,1-f][1,2,4]triazin-4-amine derivatives as TLR7 agonist” (BEIGENE, LTD., priority 2020, dated 2026)
